Results from PubChem BioAssay AID328 (DTP/NCI, 2004).
Several values for one entry are separate records, joined by “and”; a condition that tells them apart may be missing. Equal entries are not always repeated. Toxic doses and inconclusive results are not listed.

System: BDF1 mice, P388 leukemia ip, median survival T/C
Experiment: NCI In Vivo Anticancer Drug Screen. Data for tumor model P388 Leukemia (intraperitoneal) in B6D2F1 (BDF1) mice
Details: endpoint: median survival time, higher = longer survival
How it was run: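 Mice carrying the transplantable tumour receive compound or vehicle. Survival is followed in each arm, and the treated measure is divided by the vehicle measure.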

[1] = dose: 25.0 mg/kg/injection, schedule: Q01DX009 (ip), vehicle: saline
[2] = dose: 50.0 mg/kg/injection, schedule: Q01DX009 (ip), vehicle: saline
[3] = dose: 12.5 mg/kg/injection, schedule: Q01DX009 (ip), vehicle: Klucel (hydroxypropylcellulose) (HPC)
[4] = dose: 100.0 mg/kg/injection, schedule: Q04DX003 (ip), vehicle: Klucel (hydroxypropylcellulose) (HPC)
[5] = dose: 200.0 mg/kg/injection, schedule: Q04DX003 (ip), vehicle: Klucel (hydroxypropylcellulose) (HPC)
[6] = dose: 400.0 mg/kg/injection, schedule: Q04DX003 (ip), vehicle: Klucel (hydroxypropylcellulose) (HPC)
[7] = dose: 50.0 mg/kg/injection, schedule: Q01DX009 (ip), vehicle: Klucel (hydroxypropylcellulose) (HPC)

`CC(=O)OC1C2CCC3C(C)(O)C4CC(O)C(C)(C)C4(O)C(O)CC13CC2(C)O` (configuration not stated) was tested, and the T/C (dose: 12.5 micrograms/kg/injection, schedule: Q01DX009 (ip), vehicle: Klucel (hydroxypropylcellulose) (HPC)) was 96 % of control, the T/C (dose: 25.0 micrograms/kg/injection, schedule: Q01DX009 (ip), vehicle: Klucel (hydroxypropylcellulose) (HPC)) was 91 % of control and the T/C (dose: 50.0 micrograms/kg/injection, schedule: Q01DX009 (ip), vehicle: Klucel (hydroxypropylcellulose) (HPC)) was 87 % of control.

`COc1cccc2c1C(=O)c1c(O)c3c(c(O)c1C2=O)CC(O)(C(C)=O)CC3OC1CC(N)C(O)C(C)O1` (configuration not stated) was tested, and the T/C (dose: 0.03 mg/kg/injection, schedule: Q01DX010 (ip), vehicle: saline) was 118 % of control, the T/C (dose: 0.06 mg/kg/injection, schedule: Q01DX010 (ip), vehicle: saline) was 118 % of control and the T/C (dose: 0.12 mg/kg/injection, schedule: Q01DX010 (ip), vehicle: saline) was 118 % of control. The T/C (dose: 0.25 mg/kg/injection, schedule: Q01DX009 (ip), vehicle: water) was 160 % of control, the T/C (dose: 0.25 mg/kg/injection, schedule: Q01DX010 (ip), vehicle: saline) was 165 % of control and 175 % of control and the T/C (dose: 0.5 mg/kg/injection, schedule: Q01DX009 (ip), vehicle: water) was 173 % of control. The T/C (dose: 0.5 mg/kg/injection, schedule: Q01DX010 (ip), vehicle: saline) was 180 % of control and 195 % of control, the T/C (dose: 1.0 mg/kg/injection, schedule: Q01DX009 (ip), vehicle: water) was 182 % of control and the T/C (dose: 1.0 mg/kg/injection, schedule: Q01DX010 (ip), vehicle: saline) was 230 % of control and 200 % of control. For the same compound, the T/C (dose: 2.0 mg/kg/injection, schedule: Q01DX009 (ip), vehicle: water) was 210 % of control, the T/C (dose: 2.0 mg/kg/injection, schedule: Q01DX010 (ip), vehicle: saline) was 155 % of control and 190 % of control and 220 % of control and the T/C (dose: 4.0 mg/kg/injection, schedule: Q01DX009 (ip), vehicle: water) was 157 % of control. The T/C (dose: 4.0 mg/kg/injection, schedule: Q01DX010 (ip), vehicle: saline) was 180 % of control, the T/C (dose: 7.5 mg/kg/injection, schedule: Q04DX003 (ip), vehicle: water) was 104 % of control and the T/C (dose: 8.0 mg/kg/injection, schedule: Q01DX001 (ip), vehicle: saline) was 150 % of control. The T/C (dose: 8.0 mg/kg/injection, schedule: Q01DX010 (ip), vehicle: saline) was 90 % of control and 95 % of control, the T/C (dose: 15.0 mg/kg/injection, schedule: Q04DX003 (ip), vehicle: water) was 119 % of control and the T/C (dose: 16.0 mg/kg/injection, schedule: Q01DX001 (ip), vehicle: saline) was 90 % of control. The T/C (dose: 60.0 mg/kg/injection, schedule: Q04DX003 (ip), vehicle: water) was 167 % of control, the T/C (dose: 240.0 mg/kg/injection, schedule: Q04DX003 (ip), vehicle: water) was 93 % of control and the T/C (dose: 125.0 micrograms/kg/injection, schedule: Q01DX010 (ip), vehicle: saline) was 154 % of control. For the same compound, the T/C (dose: 250.0 micrograms/kg/injection, schedule: Q01DX010 (ip), vehicle: saline) was 159 % of control.

In the case of `CC12CCC3(CC1CCC(OC(=O)c1ccccc1)C2)OCCO3` (configuration not stated), the T/C (dose: 22.0 mg/kg/injection, schedule: Q01DX009 (ip), vehicle: other) is reported as 109 % of control, the T/C (dose: 33.0 mg/kg/injection, schedule: Q01DX009 (ip), vehicle: other) is reported as 109 % of control and the T/C (dose: 44.0 mg/kg/injection, schedule: Q04DX003 (ip), vehicle: other) is reported as 100 % of control. For the same compound, the T/C (dose: 50.0 mg/kg/injection, schedule: Q01DX009 (ip), vehicle: other) was 109 % of control, the T/C (dose: 66.0 mg/kg/injection, schedule: Q04DX003 (ip), vehicle: other) was 109 % of control and the T/C (dose: 75.0 mg/kg/injection, schedule: Q01DX009 (ip), vehicle: other) was 109 % of control. For the same compound, the T/C (dose: 100.0 mg/kg/injection, schedule: Q04DX003 (ip), vehicle: other) was 100 % of control, the T/C (dose: 150.0 mg/kg/injection, schedule: Q04DX003 (ip), vehicle: other) was 100 % of control and the T/C (dose: 200.0 mg/kg/injection, schedule: Q01DX009 (ip), vehicle: other) was 109 % of control. For the same compound, the T/C (dose: 200.0 mg/kg/injection, schedule: Q04DX003 (ip), vehicle: other) was 109 % of control, the T/C (dose: 400.0 mg/kg/injection, schedule: Q01DX009 (ip), vehicle: other) was 104 % of control and the T/C (dose: 400.0 mg/kg/injection, schedule: Q04DX003 (ip), vehicle: other) was 109 % of control.

For `NC(=O)CC[n+]1ccccc1`, the T/C (dose: 12.5 mg/kg/injection, schedule: Q01DX009 (ip), vehicle: saline) was 94 % of control, the T/C [1] was 100 % of control and the T/C [2] was 99 % of control.

For `CN(C)c1ccc(P(c2ccc(N(C)C)cc2)c2ccc(N(C)C)cc2)cc1`, the T/C (dose: 3.12 mg/kg/injection, schedule: Q01DX009 (ip), vehicle: Klucel (hydroxypropylcellulose) (HPC)) was 96 % of control, the T/C (dose: 6.25 mg/kg/injection, schedule: Q01DX009 (ip), vehicle: Klucel (hydroxypropylcellulose) (HPC)) was 88 % of control and the T/C [3] was 88 % of control. The T/C (dose: 12.5 mg/kg/injection, schedule: Q04DX003 (ip), vehicle: Klucel (hydroxypropylcellulose) (HPC)) was 91 % of control, the T/C (dose: 25.0 mg/kg/injection, schedule: Q04DX003 (ip), vehicle: Klucel (hydroxypropylcellulose) (HPC)) was 113 % of control and the T/C (dose: 50.0 mg/kg/injection, schedule: Q04DX003 (ip), vehicle: Klucel (hydroxypropylcellulose) (HPC)) was 86 % of control.

`O=C(/C(=N/Nc1ccccc1)c1ccccc1)c1ccccc1` was tested, and the T/C [4] was 104 % of control, the T/C [5] was 100 % of control and the T/C [6] was 113 % of control.

`N#CC(C#N)=Cc1ccc(C=C(C#N)C#N)cc1` was tested, and the T/C [3] was 100 % of control, the T/C (dose: 25.0 mg/kg/injection, schedule: Q01DX009 (ip), vehicle: Klucel (hydroxypropylcellulose) (HPC)) was 95 % of control and the T/C [7] was 90 % of control. The T/C [4] was 100 % of control, the T/C [5] was 104 % of control and the T/C [6] was 121 % of control.

For `C/C=C(/C)C(=O)O[C@H]1CC[N+]2([O-])CC=C(COC(=O)[C@@](O)([C@H](C)OC)C(C)(C)O)[C@H]12` (some centres not stated), the T/C (dose: 40.0 mg/kg/injection, schedule: Q01DX010 (ip), vehicle: saline) was 105 % of control, the T/C (dose: 50.0 mg/kg/injection, schedule: Q01DX010 (ip), vehicle: saline) was 86 % of control and the T/C (dose: 80.0 mg/kg/injection, schedule: Q01DX010 (ip), vehicle: saline) was 111 % of control.

`COc1ccc(/C=C/C(C)=O)cc1OC` was tested, and the T/C [1] was 94 % of control, the T/C (dose: 25.0 mg/kg/injection, schedule: Q04DX003 (ip), vehicle: saline) was 107 % of control and the T/C [2] was 99 % of control. The T/C (dose: 50.0 mg/kg/injection, schedule: Q04DX003 (ip), vehicle: saline) was 106 % of control, the T/C (dose: 100.0 mg/kg/injection, schedule: Q01DX009 (ip), vehicle: saline) was 110 % of control and the T/C (dose: 100.0 mg/kg/injection, schedule: Q04DX003 (ip), vehicle: saline) was 105 % of control. The T/C (dose: 200.0 mg/kg/injection, schedule: Q01DX009 (ip), vehicle: saline) was 103 % of control, the T/C (dose: 200.0 mg/kg/injection, schedule: Q04DX003 (ip), vehicle: saline) was 100 % of control and the T/C (dose: 400.0 mg/kg/injection, schedule: Q01DX009 (ip), vehicle: saline) was 108 % of control. The T/C (dose: 400.0 mg/kg/injection, schedule: Q04DX003 (ip), vehicle: saline) was 107 % of control.

In the case of `O=c1[nH]c2nccnc2[nH]1`, the T/C (dose: 12.5 mg/kg/injection, schedule: Q01DX009 (ip), vehicle: water) is reported as 93 % of control and 99 % of control, the T/C (dose: 25.0 mg/kg/injection, schedule: Q01DX009 (ip), vehicle: water) is reported as 90 % of control and 104 % of control and the T/C (dose: 50.0 mg/kg/injection, schedule: Q01DX009 (ip), vehicle: water) is reported as 97 % of control. The T/C (dose: 50.0 mg/kg/injection, schedule: Q04DX003 (ip), vehicle: water) was 107 % of control, the T/C (dose: 100.0 mg/kg/injection, schedule: Q01DX009 (ip), vehicle: water) was 89 % of control and 101 % of control and 109 % of control and the T/C (dose: 100.0 mg/kg/injection, schedule: Q04DX003 (ip), vehicle: water) was 105 % of control. For the same compound, the T/C (dose: 200.0 mg/kg/injection, schedule: Q04DX003 (ip), vehicle: water) was 107 % of control and the T/C (dose: 400.0 mg/kg/injection, schedule: Q04DX003 (ip), vehicle: water) was 116 % of control.

For `CC(=O)OCc1ccc[n+](C2=C([O-])C(=O)C([n+]3cccc(COC(C)=O)c3)=C([O-])C2=O)c1`, the T/C (dose: 50.0 mg/kg/injection, schedule: Q01DX009 (ip), vehicle: saline with Tween-80) was 104 % of control, the T/C (dose: 100.0 mg/kg/injection, schedule: Q01DX009 (ip), vehicle: saline with Tween-80) was 98 % of control and the T/C (dose: 200.0 mg/kg/injection, schedule: Q01DX009 (ip), vehicle: saline with Tween-80) was 102 % of control.

In the case of `OC(CNc1ccc(Cl)cc1)COc1ccc(Cl)cc1Cl` (configuration not stated), the T/C [7] is reported as 100 % of control, the T/C (dose: 100.0 mg/kg/injection, schedule: Q01DX009 (ip), vehicle: Klucel (hydroxypropylcellulose) (HPC)) is reported as 101 % of control and the T/C (dose: 200.0 mg/kg/injection, schedule: Q01DX009 (ip), vehicle: Klucel (hydroxypropylcellulose) (HPC)) is reported as 102 % of control.
